Test results from patent US20060270655A1, “Combination therapy for treating obesity or maintaining weight loss” (priority 2005, published 2006).

Assay: Food intake (12 hour spontaneous food intake, rats on high fat diet)
Format: in vivo
Conditions: male Sprague-Dawley rats
Experimental: The following functional assay was used to determine the effect of an intestinal-acting MTPi, a CB-1 antagonist, and the combination of an intestinal-acting MTPi and a CB-1 antagonist on food intake. The doses of the CB-1 antagonist used in the experiments were 10 mg/kg and 30 mg/kg. The doses of the intestinal-acting MTPi used in the experiments were 3 mg/kg and 10 mg/kg. The different dosages for each active were tested alone and in various combinations with each other as compared to a control (vehicle).
Male Sprague-Dawley rats (275-325 grams) were placed on a high fat diet (Research Diets, 45% kcal from fat). Animals were acclimated to an automated food intake assessment system overnight. Food weight data was collected by computer acquisition. Immediately prior to the start of the dark cycle on the first day, animals were given a PO (i.e., orally by mouth) dose of a gMTP inhibitor (Dirlotapide) or vehicle (self-emulsifying drug delivery system (SEDDS) formulation containing 20% Miglyol 812, 30% Triacetin, 20% Tween 80, and 30% Capmul MCM). On the second day, rats (n=5-10/group) were given a PO dose of a CB-1 antagonist (Compound A) or 0.5% methylcellulose 20 minutes prior to a second dose of Dirlotapide or vehicle. Food Intake was monitored until the following day. Data for each treatment group was compared by ANOVA (analysis of variance).

SMILES	12 hour Spontaneous Food Intake (10 mg/kg Compound A PO alone (plus SEDDS vehicle)) [grams]	12 hour Spontaneous Food Intake (30 mg/kg Compound A PO alone (plus SEDDS vehicle)) [grams]	12 hour Spontaneous Food Intake (3 mg/kg Dirlotapide PO alone (two daily doses, plus 0.5% methylcellulose)) [grams]	12 hour Spontaneous Food Intake (10 mg/kg Dirlotapide PO alone (two daily doses, plus 0.5% methylcellulose)) [grams]
CCNC1(C(N)=O)CCN(c2ncnc3c2nc(-c2ccccc2Cl)n3-c2ccc(Cl)cc2)CC1 [Compound A, 1-[9-(4-chloro-phenyl)-8-(2-chloro-phenyl)-9H-purin-6-yl]4-ethylamino-piperidine-4-carboxylic acid amide]	16.3 ± 1.0	12.6 ± 1.4	–	–
CN(Cc1ccccc1)C(=O)[C@@H](NC(=O)c1cc2cc(NC(=O)c3ccccc3-c3ccc(C(F)(F)F)cc3)ccc2n1C)c1ccccc1 [Dirlotapide, (S)-N-{2-[benzyl(methyl)amino]-2-oxo-1-phenylethyl}-1-methyl-5-[4′-(trifluoromethyl)[1,1′-biphenyl]-2-carboxamido]-1H-indole-2 carboxamide]	–	–	14.6 ± 0.8	11.3 ± 0.7
